Source: PMC4795788, “Finding Potent Sirt Inhibitor in Coffee: Isolation, Confirmation and Synthesis of Javamide-II (N-Caffeoyltryptophan) as Sirt1/2 Inhibitor” (PLoS ONE, 2016)

Experiments:
Format in all cases: biochemical
[1] = target: T1, Sirt1 (Homo sapiens, UniProt Q96EB6); experiment: fluorescent deacetylase assay
T1 construct: human recombinant Sirt1 (Cayman Direct Fluorescent Screening Assay kit)
T1 sequence (Q96EB6 2-747): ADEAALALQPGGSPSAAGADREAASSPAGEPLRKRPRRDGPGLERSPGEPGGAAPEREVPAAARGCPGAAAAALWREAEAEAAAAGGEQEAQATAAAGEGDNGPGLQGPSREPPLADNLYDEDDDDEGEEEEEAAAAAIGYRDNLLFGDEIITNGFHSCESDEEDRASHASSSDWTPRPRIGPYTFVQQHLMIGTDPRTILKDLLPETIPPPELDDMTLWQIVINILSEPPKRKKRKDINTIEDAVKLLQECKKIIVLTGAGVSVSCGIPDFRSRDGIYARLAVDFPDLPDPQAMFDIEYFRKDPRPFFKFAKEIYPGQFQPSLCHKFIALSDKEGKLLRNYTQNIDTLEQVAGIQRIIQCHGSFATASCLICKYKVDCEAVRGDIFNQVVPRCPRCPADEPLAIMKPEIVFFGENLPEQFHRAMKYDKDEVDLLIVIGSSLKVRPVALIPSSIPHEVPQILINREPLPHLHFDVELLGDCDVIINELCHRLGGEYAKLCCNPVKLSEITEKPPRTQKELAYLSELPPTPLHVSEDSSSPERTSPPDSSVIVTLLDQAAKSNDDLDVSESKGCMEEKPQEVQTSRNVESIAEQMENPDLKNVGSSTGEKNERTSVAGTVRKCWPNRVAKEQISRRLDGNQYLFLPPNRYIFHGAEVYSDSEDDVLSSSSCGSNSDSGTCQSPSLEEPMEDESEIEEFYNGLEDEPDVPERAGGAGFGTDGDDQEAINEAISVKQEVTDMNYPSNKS

[2] = target: T2, Sirt2 (Homo sapiens, UniProt Q8IXJ6); experiment: fluorescent deacetylase assay, Lineweaver-Burk kinetics (IC50 […])
T2 sequence (Q8IXJ6 2-389): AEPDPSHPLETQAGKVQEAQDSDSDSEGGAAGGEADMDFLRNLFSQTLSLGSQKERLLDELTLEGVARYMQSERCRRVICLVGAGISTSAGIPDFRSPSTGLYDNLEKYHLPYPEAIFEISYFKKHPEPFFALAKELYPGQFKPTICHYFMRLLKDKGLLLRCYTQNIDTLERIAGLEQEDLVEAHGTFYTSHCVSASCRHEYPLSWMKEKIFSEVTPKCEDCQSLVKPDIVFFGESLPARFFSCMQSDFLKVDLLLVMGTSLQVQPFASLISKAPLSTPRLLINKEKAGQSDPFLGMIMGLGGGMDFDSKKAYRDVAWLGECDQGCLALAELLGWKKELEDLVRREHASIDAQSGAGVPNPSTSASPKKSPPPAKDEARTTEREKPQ

[3] = target: T3, Sirt3 (Homo sapiens, UniProt Q9NTG7); experiment: fluorescent deacetylase assay, % inhibition at […]
T3 construct: human recombinant Sirt3 (Cayman Direct Fluorescent Screening Assay kit)
T3 sequence (Q9NTG7 102-399): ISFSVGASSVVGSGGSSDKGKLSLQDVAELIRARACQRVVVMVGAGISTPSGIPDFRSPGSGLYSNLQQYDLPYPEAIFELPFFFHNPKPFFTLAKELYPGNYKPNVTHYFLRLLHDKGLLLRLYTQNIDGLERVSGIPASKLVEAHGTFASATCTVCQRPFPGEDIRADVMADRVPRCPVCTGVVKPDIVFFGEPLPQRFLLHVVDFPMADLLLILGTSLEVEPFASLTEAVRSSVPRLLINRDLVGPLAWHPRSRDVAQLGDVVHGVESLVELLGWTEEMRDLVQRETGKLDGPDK

O=C(/C=C/c1ccc(O)c(O)c1)N[C@@H](Cc1c[nH]c2ccccc12)C(=O)O [javamide-II, (E)-(3-(3,4-dihydroxyphenyl)acryloyl)tryptophan]
IC50 [1]: 34 µM | Ki [2]: 5.3 µM | inhibition at 60 µM [3]: 50 ± 8.1%
